Where two headings read alike, the source gives them in different places.
What was measured:
Experiment in all cases: SelectScreen Kinase Profiling, single point inhibition and IC50 for off-target kinases
Format in all cases: biochemical
off-target kinases [1] = molecular target: off-target kinases (Homo sapiens, UniProt P30291); settings: WEE1, LanthaScreen Binding
off-target kinases [2] = molecular target: off-target kinases (Homo sapiens, UniProt Q9H1R3); settings: MYLK2 (skMLCK), ATP Km app, ZLYTE
off-target kinases [3] = test system: off-target kinases
off-target kinases [4] = molecular target: off-target kinases (Homo sapiens, UniProt Q9NYA1); settings: SPHK1, Adapta, ATP Km app
off-target kinases [5] = molecular target: off-target kinases (Homo sapiens, UniProt P08581, D1228H); settings: MET D1228H, LanthaScreen Binding
off-target kinases [6] = molecular target: off-target kinases (Homo sapiens, UniProt P17612); settings: PRKACA (PKA), ZLYTE, ATP Km app
off-target kinases [7] = molecular target: off-target kinases (Homo sapiens, UniProt P10721, D820E); settings: KIT D820E, mutant y, LanthaScreen Binding
off-target kinases [8] = molecular target: T1, off-target kinases (Homo sapiens, UniProt O15146); settings: MUSK, ZLYTE, ATP Km app
T1 sequence (O15146 24-869): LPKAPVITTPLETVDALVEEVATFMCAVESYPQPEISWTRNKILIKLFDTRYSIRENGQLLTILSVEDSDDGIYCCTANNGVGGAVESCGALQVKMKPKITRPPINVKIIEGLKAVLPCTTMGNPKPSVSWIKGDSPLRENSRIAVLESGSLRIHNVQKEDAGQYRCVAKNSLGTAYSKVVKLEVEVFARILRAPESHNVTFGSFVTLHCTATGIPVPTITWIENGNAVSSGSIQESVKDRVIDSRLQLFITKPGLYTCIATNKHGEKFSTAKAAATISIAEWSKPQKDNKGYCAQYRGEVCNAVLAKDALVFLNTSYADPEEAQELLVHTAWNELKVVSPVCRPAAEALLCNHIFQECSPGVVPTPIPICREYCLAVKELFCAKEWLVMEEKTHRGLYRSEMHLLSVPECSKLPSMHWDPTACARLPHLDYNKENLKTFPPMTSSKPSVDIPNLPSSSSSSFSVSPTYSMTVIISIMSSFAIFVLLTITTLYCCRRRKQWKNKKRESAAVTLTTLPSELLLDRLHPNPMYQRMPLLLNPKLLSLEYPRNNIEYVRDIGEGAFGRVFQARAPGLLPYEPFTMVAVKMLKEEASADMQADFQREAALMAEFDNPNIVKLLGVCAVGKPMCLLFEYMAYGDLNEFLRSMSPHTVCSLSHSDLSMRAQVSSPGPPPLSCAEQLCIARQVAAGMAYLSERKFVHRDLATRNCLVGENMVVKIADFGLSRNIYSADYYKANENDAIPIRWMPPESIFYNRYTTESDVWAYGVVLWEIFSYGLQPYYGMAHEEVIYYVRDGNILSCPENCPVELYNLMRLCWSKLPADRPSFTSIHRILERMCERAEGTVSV

off-target kinases [9] = molecular target: off-target kinases (Homo sapiens, UniProt P28482); settings: MAPK1 (ERK2), ZLYTE, ATP Km app
off-target kinases [10] = molecular target: off-target kinases (Homo sapiens, UniProt Q9BYT3); settings: STK33, LanthaScreen Binding
Chain of off-target kinases (Homo sapiens, UniProt Q9BYT3) (Q9BYT3 whole entry): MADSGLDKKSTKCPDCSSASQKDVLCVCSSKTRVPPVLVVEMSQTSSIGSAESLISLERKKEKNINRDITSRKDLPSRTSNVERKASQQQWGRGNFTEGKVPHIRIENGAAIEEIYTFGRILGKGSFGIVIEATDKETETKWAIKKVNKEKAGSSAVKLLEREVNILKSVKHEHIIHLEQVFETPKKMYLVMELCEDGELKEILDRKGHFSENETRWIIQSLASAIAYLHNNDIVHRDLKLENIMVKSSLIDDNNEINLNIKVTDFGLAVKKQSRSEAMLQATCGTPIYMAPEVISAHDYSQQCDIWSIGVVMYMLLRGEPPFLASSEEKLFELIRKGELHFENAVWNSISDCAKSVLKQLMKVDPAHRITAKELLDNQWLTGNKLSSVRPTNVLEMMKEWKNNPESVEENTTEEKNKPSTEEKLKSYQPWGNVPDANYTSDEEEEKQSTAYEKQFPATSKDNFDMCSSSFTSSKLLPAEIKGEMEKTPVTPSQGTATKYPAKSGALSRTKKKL

Chain of off-target kinases (Homo sapiens, UniProt P08581, D1228H) (P08581 25-1390 D1228H): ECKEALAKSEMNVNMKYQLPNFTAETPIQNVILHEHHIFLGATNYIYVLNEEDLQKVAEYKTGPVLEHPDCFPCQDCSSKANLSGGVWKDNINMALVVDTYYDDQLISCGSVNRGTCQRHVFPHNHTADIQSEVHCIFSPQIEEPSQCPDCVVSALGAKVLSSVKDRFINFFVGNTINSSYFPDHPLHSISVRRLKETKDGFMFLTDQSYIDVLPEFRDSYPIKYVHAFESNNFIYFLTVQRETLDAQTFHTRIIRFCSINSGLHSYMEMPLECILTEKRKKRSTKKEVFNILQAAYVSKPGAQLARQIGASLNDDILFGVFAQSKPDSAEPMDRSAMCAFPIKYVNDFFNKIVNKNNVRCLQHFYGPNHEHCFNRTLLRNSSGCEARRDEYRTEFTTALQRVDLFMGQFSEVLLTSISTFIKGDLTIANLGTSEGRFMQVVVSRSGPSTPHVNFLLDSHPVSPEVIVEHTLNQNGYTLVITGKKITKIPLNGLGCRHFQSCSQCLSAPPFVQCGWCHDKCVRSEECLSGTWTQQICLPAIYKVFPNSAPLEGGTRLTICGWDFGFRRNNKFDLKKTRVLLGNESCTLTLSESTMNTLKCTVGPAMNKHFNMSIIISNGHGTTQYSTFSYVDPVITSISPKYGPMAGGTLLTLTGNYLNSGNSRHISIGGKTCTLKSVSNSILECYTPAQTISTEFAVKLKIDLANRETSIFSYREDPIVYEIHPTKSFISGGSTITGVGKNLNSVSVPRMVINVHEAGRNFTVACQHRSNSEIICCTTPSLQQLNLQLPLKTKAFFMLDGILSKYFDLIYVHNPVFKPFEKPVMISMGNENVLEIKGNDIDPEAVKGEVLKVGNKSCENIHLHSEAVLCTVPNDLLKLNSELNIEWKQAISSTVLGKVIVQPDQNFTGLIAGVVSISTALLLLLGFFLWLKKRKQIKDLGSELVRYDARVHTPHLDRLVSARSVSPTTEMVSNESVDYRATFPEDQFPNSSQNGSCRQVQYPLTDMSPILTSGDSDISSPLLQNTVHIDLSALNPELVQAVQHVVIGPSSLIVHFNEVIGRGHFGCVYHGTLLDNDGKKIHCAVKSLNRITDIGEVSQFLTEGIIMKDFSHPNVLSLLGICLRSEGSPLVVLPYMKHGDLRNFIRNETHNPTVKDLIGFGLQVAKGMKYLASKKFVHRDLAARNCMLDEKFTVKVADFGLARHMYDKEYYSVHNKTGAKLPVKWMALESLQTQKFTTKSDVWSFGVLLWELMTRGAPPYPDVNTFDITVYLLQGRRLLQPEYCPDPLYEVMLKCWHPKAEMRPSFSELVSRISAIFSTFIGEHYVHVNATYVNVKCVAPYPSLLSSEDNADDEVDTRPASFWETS
Chain of off-target kinases (Homo sapiens, UniProt P10721, D820E) (P10721 26-976 D820E): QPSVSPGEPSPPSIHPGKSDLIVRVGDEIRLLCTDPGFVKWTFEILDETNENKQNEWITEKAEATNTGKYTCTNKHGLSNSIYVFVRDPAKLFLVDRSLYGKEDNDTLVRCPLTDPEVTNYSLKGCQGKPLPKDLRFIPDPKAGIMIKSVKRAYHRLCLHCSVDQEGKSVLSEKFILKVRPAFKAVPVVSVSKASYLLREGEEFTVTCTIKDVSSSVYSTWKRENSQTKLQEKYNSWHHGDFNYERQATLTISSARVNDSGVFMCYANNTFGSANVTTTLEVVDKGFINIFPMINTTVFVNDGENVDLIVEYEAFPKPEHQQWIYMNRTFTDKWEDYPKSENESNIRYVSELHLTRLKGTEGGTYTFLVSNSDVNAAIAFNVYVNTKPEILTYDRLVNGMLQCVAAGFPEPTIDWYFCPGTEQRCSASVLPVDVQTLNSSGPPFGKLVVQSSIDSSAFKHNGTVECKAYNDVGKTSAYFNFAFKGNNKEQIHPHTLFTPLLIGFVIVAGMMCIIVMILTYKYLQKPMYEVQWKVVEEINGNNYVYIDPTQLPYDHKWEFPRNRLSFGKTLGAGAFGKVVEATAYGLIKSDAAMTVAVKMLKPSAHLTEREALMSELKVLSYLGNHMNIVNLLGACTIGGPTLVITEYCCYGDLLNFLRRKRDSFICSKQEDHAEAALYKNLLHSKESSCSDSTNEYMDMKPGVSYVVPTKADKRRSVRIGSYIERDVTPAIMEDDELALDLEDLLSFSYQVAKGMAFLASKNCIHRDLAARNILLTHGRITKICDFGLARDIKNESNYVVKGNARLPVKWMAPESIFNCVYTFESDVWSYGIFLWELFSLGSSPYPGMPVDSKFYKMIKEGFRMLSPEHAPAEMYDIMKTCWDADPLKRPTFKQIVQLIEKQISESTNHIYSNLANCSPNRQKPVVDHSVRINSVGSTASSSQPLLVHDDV
Chain of off-target kinases (Homo sapiens, UniProt Q9NYA1) (Q9NYA1 whole entry): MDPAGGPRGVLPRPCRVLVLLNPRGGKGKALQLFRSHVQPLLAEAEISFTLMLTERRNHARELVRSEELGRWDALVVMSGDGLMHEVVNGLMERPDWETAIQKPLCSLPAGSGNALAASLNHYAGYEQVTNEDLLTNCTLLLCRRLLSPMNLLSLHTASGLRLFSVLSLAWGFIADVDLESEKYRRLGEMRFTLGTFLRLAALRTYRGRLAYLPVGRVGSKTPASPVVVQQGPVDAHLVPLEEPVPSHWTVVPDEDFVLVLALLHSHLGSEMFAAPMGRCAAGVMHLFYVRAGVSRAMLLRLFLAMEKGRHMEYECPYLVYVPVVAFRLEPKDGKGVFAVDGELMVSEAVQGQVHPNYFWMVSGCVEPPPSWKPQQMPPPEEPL
Chain of off-target kinases (Homo sapiens, UniProt P30291) (P30291 whole entry): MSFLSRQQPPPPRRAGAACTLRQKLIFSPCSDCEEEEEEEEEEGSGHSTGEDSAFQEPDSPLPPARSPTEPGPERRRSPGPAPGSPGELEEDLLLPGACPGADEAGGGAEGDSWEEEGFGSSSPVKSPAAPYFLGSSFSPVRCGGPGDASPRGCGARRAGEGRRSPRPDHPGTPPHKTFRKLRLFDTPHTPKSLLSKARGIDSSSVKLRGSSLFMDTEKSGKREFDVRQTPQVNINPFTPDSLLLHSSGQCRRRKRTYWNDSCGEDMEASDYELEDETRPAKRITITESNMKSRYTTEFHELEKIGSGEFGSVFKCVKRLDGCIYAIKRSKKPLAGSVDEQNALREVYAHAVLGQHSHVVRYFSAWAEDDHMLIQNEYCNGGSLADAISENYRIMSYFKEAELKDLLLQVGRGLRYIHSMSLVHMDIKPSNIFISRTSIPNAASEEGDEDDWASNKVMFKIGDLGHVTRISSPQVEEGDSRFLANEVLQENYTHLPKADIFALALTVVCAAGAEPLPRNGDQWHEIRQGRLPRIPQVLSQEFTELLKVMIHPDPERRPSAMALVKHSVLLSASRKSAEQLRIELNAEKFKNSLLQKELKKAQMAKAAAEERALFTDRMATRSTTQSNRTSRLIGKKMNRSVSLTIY
Chain of off-target kinases (Homo sapiens, UniProt Q9H1R3) (Q9H1R3 whole entry): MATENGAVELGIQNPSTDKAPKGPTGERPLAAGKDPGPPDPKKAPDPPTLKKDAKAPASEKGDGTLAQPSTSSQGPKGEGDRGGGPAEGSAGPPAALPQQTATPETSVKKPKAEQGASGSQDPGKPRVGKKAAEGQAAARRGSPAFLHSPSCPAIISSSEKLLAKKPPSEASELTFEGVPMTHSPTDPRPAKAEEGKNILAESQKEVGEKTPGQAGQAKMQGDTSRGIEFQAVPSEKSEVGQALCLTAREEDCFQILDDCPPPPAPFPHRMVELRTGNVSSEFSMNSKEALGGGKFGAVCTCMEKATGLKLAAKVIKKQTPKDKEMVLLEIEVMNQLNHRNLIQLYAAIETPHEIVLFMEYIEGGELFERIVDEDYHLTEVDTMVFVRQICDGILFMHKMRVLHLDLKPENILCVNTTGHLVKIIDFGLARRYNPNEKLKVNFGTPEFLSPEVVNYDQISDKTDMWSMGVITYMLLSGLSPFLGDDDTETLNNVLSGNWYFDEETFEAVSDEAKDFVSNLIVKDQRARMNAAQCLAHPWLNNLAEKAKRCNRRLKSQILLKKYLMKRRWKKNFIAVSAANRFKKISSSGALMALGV
Chain of off-target kinases (Homo sapiens, UniProt P28482) (P28482 whole entry): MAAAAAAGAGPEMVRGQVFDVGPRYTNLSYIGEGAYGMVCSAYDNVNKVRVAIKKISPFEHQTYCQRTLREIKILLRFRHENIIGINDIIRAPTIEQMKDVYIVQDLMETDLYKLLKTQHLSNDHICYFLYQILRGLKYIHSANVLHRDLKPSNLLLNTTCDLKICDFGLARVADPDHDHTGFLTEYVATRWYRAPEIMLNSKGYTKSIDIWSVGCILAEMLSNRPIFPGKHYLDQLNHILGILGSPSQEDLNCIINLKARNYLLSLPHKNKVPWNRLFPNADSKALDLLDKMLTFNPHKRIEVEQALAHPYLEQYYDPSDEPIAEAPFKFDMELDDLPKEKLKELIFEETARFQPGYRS

## N#Cc1cc(-c2ncnc(Nc3ccc(N4CCN(C5COC5)CC4)cc3)n2)ccc1OC1CCOCC1 [Compound 1, 5-(4-((4-(4-(oxetan-3-yl)piperazin-1-yl)phenyl)amino)-1,3,5-triazin-2-yl)-2-((tetrahydro-2H-pyran-4-yl)oxy)benzonitrile]
off-target kinases [1]; read-out: % Inhibition 1
  inhibition: 28%
off-target kinases [1]; read-out: % Inhibition 2
  inhibition: 36%
off-target kinases [1]; read-out: % Inhibition Avg
  inhibition: 32%
off-target kinases [2]; read-out: % Inhibition 1
  inhibition: 65%
off-target kinases [2]; read-out: % Inhibition 2
  inhibition: 60%
off-target kinases [2]; read-out: % Inhibition Avg
  inhibition: 63%
off-target kinases [3]
  JAK inhibitory activity: lacks JAK inhibitory activity
off-target kinases [4]; read-out: % Inhibition 1
  inhibition: 10%
off-target kinases [4]; read-out: % Inhibition 2
  inhibition: -9%
off-target kinases [4]; read-out: % Inhibition Avg
  inhibition: 0%
off-target kinases [5]; read-out: % Inhibition 1
  inhibition: 46%
off-target kinases [5]; read-out: % Inhibition 2
  inhibition: 48%
off-target kinases [5]; read-out: % Inhibition Avg
  inhibition: 47%
off-target kinases [6]; read-out: % Inhibition 1
  inhibition: 4%
off-target kinases [6]; read-out: % Inhibition 2
  inhibition: 1%
off-target kinases [6]; read-out: % Inhibition Avg
  inhibition: 3%
off-target kinases [7]; read-out: % Inhibition 1
  inhibition: 18%
off-target kinases [7]; read-out: % Inhibition 2
  inhibition: 19%
off-target kinases [7]; read-out: % Inhibition Avg
  inhibition: 18%
off-target kinases [8]; read-out: % Inhibition 1
  inhibition: 15%
off-target kinases [8]; read-out: % Inhibition 2
  inhibition: 8%
off-target kinases [8]; read-out: % Inhibition Avg
  inhibition: 12%
off-target kinases [9]; read-out: % Inhibition 1
  inhibition: 6%
off-target kinases [9]; read-out: % Inhibition 2
  inhibition: 6%
off-target kinases [9]; read-out: % Inhibition Avg
  inhibition: 6%
off-target kinases [10]; read-out: % Inhibition 1
  inhibition: 59%
off-target kinases [10]; read-out: % Inhibition 2
  inhibition: 55%
off-target kinases [10]; read-out: % Inhibition Avg
  inhibition: 57%

Source: patent publication US11572590B2, “Methods for evaluating tumor cell spheroids using 3D microfluidic cell culture device” (Dana-Farber Cancer Institute, Inc., priority 2017, dated 2023)
